Data: the NIST ThermoML archive (doi:10.1007/s10765-011-1111-y)
Where “and” joins values, the source holds several entries; their conditions need not be identical. Equal values may be shown once. Numbers after ± are expanded uncertainties.

Assay: mn = molality of the nth substance listed, in mol/kg
Conditions: 101 kPa, Liquid, m1 = 1

For `CC(=O)[O-].CC(=O)[O-].[Ca+2]` [calcium acetate] + O, the viscosity (303.15 K) was 1.545 ± 0.038 mPa·s and 1.563 ± 0.038 mPa·s, the viscosity (308.15 K) was 1.412 ± 0.035 mPa·s and the viscosity (313.15 K) was 1.265 ± 0.032 mPa·s. The viscosity (318.15 K) was 1.127 ± 0.029 mPa·s and the viscosity (323.15 K) was 0.999 ± 0.026 mPa·s.
`CC(=O)[O-].[Na+]` [sodium ethanoate] + O showed a viscosity (303.15 K) of 1.095 ± 0.028 mPa·s, a viscosity (308.15 K) of 1.005 ± 0.026 mPa·s and a viscosity (313.15 K) of 0.9052 ± 0.024 mPa·s. It also gave a viscosity (318.15 K) of 0.801 ± 0.021 mPa·s and a viscosity (323.15 K) of 0.721 ± 0.019 mPa·s.
`CC(=O)[O-].[K+]` [potassium ethanoate] + O gave a viscosity (303.15 K) of 0.975 ± 0.025 mPa·s, a viscosity (308.15 K) of 0.8864 ± 0.023 mPa·s and a viscosity (313.15 K) of 0.805 ± 0.021 mPa·s. For the same molecule, the viscosity (318.15 K) was 0.719 ± 0.019 mPa·s and the viscosity (323.15 K) was 0.655 ± 0.018 mPa·s.
